Molecules are shown by their SMILES. Counter-ions that a name gives are not always drawn. Like-named read-outs stand apart in the source and are kept apart here. Where only a bound is given, the exact number is not on record here.

For 27 compounds, IC50 results are on record in US20240216357A1 (SICHUAN HUIYU PHARMACEUTICAL CO., LTD., priority 2021, published 2024).

One assay addresses LSD1 (Homo sapiens (Human), UniProt O60341). Put plainly: LSD1 enzyme activity detection (HTRF). Type of assay: biochemical. Conditions: read-out: Inhibition of enzymatic activity of LSD1 IC50. (In general: In TR-FRET formats the signal depends on donor and acceptor labels being close together.)
The subject of another assay is NCI-H1417 cells. Put plainly: In vitro cell proliferation detection (CellTiter-Glo, 7 days). Format: cell-based. Conditions: Homo sapiens, 168 h; NCI-H1417 cells, 7 days, CellTiter-Glo; read-out: NCI-H1417 proliferation inhibition IC50. On the technique in general: In ATP-based viability assays light output follows the ATP content of the culture.

On to `COc1ccc(-c2c(-c3ccc(C#N)c(F)c3)nc(N3CC4CC(C3)C4N)n3ccnc23)cc1F` (stereo not drawn) [Example 167, 4-(5-(6-amino-3-azabicyclo [3.1.1]heptane-3-yl)-8-(3-fluoro-4-methoxyphenyl)imidazolo[1,2-c]pyrimidin-7-yl)-2-fluorobenzonitrile hydrochloride], for which the IC50 on LSD1 (HTRF, H3K4me1 substrate) amounted to 78.4 nM; in the assay on NCI-H1417 cells, 155 nM.

As for `Cc1ccc(-c2c(-c3ccc(C#N)c(F)c3)nc(N3CC4CCC3CC4N)n3ccnc23)cc1O` (stereo not drawn) [Example 168, 4-(5-(5-amino-2-azabicyclo [2.2.2]octane-2-yl)-8-(3-hydroxy-4-methylphenyl)imidazolo[1,2-c]pyrimidin-7-yl)-2-fluorobenzo nitrile], the IC50 at LSD1 (HTRF, H3K4me1 substrate) was found to be 0.5 ± 0.1 nM; in the assay with NCI-H1417 cells, 1.24 nM.

Consider `COc1ccc(-c2c(-c3ccc(C#N)c(F)c3)nc(N3CC4CCC3CC4N)n3ccnc23)cc1F` (stereo not drawn) [Example 170, 4-(5-(5-amino-2-azabicyclo[2.2.2]octane-2-yl)-8-(3-fluoro-4-methoxyphenyl)imidazolo[1,2-c]pyrimidin-7-yl)-2-fluorobenzonitrile hydrochloride], for which the IC50 turned out to be 13.2 nM at LSD1 (HTRF, H3K4me1 substrate) and 18.3 nM in the assay on NCI-H1417 cells.

Turning to `N#Cc1ccc(-c2nc(N3C4CCC3CC(N)C4)n3ccnc3c2-c2cc3c(cc2F)CCN3)cc1F` (stereo not drawn) [Example 171], the IC50 on LSD1 (HTRF, H3K4me1 substrate) came out at 1.9 ± 1.5 nM; with NCI-H1417 cells it was 6 nM.

Take `N#Cc1ccc(-c2nc(N3C4CCC3CC(N)C4)n3ccnc3c2-c2cc3nc[nH]c3cc2F)cc1F` (stereo not drawn) [Example 172, 4-(5-(3-amino-8-azabicyclo[3.2.1]octane-8-yl)-8-(6-fluoro-1H-benzo[d]imidazole-5-yl)imidazolo [1,2-c]pyrimidin-7-yl)-2-fluorobenzonitrile]: the IC50 at LSD1 (HTRF, H3K4me1 substrate) is 5 ± 4.1 nM; with NCI-H1417 cells, 149 nM.

Turning to `N#Cc1ccc(-c2nc(N3C4CCC3CC(N)C4)n3ccnc3c2-c2cc3[nH]ncc3cc2F)cc1F` (stereo not drawn) [Example 173, 4-(5-(3-amino-8-azabicyclo[3.2.1]octane-8-yl)-8-(5-fluoro-1H-indazole-6-yl)imidazolo[1,2-c]pyrimidin-7-yl)-2-fluorobenzonitrile hydrochloride], the IC50 on LSD1 (HTRF, H3K4me1 substrate) was determined as 0.8 ± 0.2 nM; in the assay with NCI-H1417 cells it was 8.15 nM.

As for `Cn1ccc2cc(F)c(-c3c(-c4ccc(C#N)c(F)c4)nc(N4C5CCC4CC(N)C5)n4ccnc34)cc21` (stereo not drawn) [Example 174, 4-(5-(3-amino-8-azabicyclo[3.2.1]octane-8-yl)-8-(5-fluoro-1-methyl-1H-indole-6-yl)imidazolo [1,2-c]pyrimidin-7-yl)-2-fluoro benzonitrile], the IC50 on LSD1 (HTRF, H3K4me1 substrate) stood at 13.2 nM; in the assay on NCI-H1417 cells it was 14.4 nM.

For `COc1ccc(-c2c(-c3ccc(C#N)nc3)nc(N3C4CCC3CC(N)C4)n3ccnc23)cc1F` (stereo not drawn) [Example 176, 5-(5-(3-amino-8-azabicyclo[3.2.1]octane-8-yl)-8-(3-fluoro-4-methoxyphenyl)imidazolo[1,2-c]pyrimidin-7-yl) picolinonitrile hydrochloride], the IC50 at LSD1 (HTRF, H3K4me1 substrate) was 16.8 nM; in the assay on NCI-H1417 cells it was 21.6 nM.

Consider `COc1ccc(-c2c(-c3ccc(C#N)cc3)nc(N3C4CCC3CC(N)C4)n3ccnc23)cc1F` (stereo not drawn) [Example 178, 4-(5-(3-amino-8-azabicyclo [3.2.1]octane-8-yl)-8-(3-fluoro-4-methoxyphenyl)imidazolo[1,2-c]pyrimidin-7-yl) benzonitrile hydrochloride], for which the IC50 at LSD1 (HTRF, H3K4me1 substrate) worked out at 3.8 ± 2.2 nM; in the assay on NCI-H1417 cells it was 6.24 nM.

For `COc1ccc(-c2c(-c3ccc(C#N)c(F)c3F)nc(N3C4CCC3CC(N)C4)n3ccnc23)cc1F` (stereo not drawn) [Example 183, 4-(5-(3-amino-8-azabicyclo[3.2.1]octane-8-yl)-8-(3-fluoro-4-methoxyphenyl)imidazolo[1,2-c]pyrimidin-7-yl)-2,3-difluorobe nzonitrile hydrochloride], the IC50 at LSD1 (HTRF, H3K4me1 substrate) turned out to be 3.6 ± 0.6 nM; with NCI-H1417 cells it was 6.28 nM.

As to `COc1ccc(-c2c(-c3ccc(C#N)c(O)c3)nc(N3C4CCC3CC(N)C4)n3ccnc23)cc1F` (stereo not drawn) [Example 185, 4-(5-(3-amino-8-azabicyclo[3.2.1]octane-8-yl)-8-(3-fluoro-4-methoxyphenyl)imidazolo[1,2-c]pyrimidin-7-yl)-2-hydroxybenzonitrile], the IC50 at LSD1 (HTRF, H3K4me1 substrate) worked out at 14.1 nM; with NCI-H1417 cells, 160 nM.

With `N#Cc1ccc(-c2nc(N3C4CCC3CC(N)C4)n3ccnc3c2-c2cc3nonc3cc2F)cc1F` (stereo not drawn) [Example 186, 4-(5-(3-amino-8-azabicyclo[3.2.1]octane-8-yl)-8-(6-fluorobenzo[c] [1,2,5]oxadiazole-5-yl)imidazolo [1,2-c]pyrimidin-7-yl)-2-fluorobenzonitrile], the IC50 on LSD1 (HTRF, H3K4me1 substrate) is 17.3 nM; with NCI-H1417 cells it was 18 nM.

For `COc1ccc(-c2c(-c3ccc(C#N)c(F)c3)nc(N3CCC(N)CC3)n3c(C)cnc23)cc1O` [Example 187, 4-(5-(4-aminopiperidin-1-yl)-8-(3-hydroxy-4-methoxyphenyl)-3-methylimidazolo[1,2-c]pyrimidin-7-yl)-2-fluorobenzonitrile], the IC50 at LSD1 (HTRF, H3K4me1 substrate) stood at 0.8 ± 0.1 nM; in the assay on NCI-H1417 cells, 1.11 nM.

On to `Cc1ccc(-c2c(-c3ccc(C#N)cc3)cc3c(N4CC(N)C4)nccn23)cc1` [Example 188, 4-(1-(3-aminoazetidin-1-yl)-6-(p-tolyl)pyrrolo[1,2-a]pyrazin-7-yl)benzonitrile hydrochloride], for which the IC50 at LSD1 (HTRF, H3K4me1 substrate) was 35 nM; in the assay with NCI-H1417 cells, greater than 1000 nM.

Consider `CN[C@@H]1CCCN(c2nccn3c(-c4ccc(C)cc4)c(-c4ccc(C#N)cc4)cc23)C1` [Example 189, (R)-4-(1-(3-(methylamino)piperidin-1-yl)-6-(p-tolyl)pyrrolo[1,2-a]pyrazin-7-yl)benzonitrile hydrochloride], for which the IC50 is 0.29 ± 0.11 nM on LSD1 (HTRF, H3K4me1 substrate) and 4.04 nM in the assay on NCI-H1417 cells.

Regarding `Cc1ccc(-c2c(-c3ccc(C#N)cc3)cc3c(N4CCN(C)CC4)nccn23)cc1` [Example 190, 4-(1-(4-methylpiperazin-1-yl)-6-(p-tolyl)pyrrolo [1,2-a]pyrazin-7-yl) benzonitrile], the IC50 at LSD1 (HTRF, H3K4me1 substrate) is 0.331 nM; in the assay on NCI-H1417 cells it was 1120 nM.

For `Cc1ccc(-c2c(-c3ccc(C#N)cc3)cc3c(N4CCC(N)C4)nccn23)cc1` (stereo not drawn) [Example 192, 4-(1-(3-aminopyrrolidin-1-yl)-6-(p-tolyl)pyrrolo [1,2-a]pyrazine-7-yl) benzonitrile hydrochloride], the IC50 was 10.6 nM on LSD1 (HTRF, H3K4me1 substrate) and 81 nM in the assay on NCI-H1417 cells.

`Cc1ccc(-c2c(-c3ccc(C#N)cc3)cc3c(N4CCC(N)CC4)nccn23)cc1` [Example 193, 4-(1-(4-aminopiperidin-1-yl)-6-(p-tolyl)pyrrolo[1,2-a]pyrazin-7-yl)benzonitrile hydrochloride]: the IC50 on LSD1 (HTRF, H3K4me1 substrate) came to 1.72 nM; in the assay on NCI-H1417 cells, 61.4 nM.

`Cc1ccc(-c2c(-c3ccc(C#N)cc3)cc3c(N4CCC(N)CC4)nncn23)cc1` [Example 196, 4-(1-(4-aminopiperidin-1-yl)-6-(p-tolyl)pyrrolo[1,2-d][1,2,4]triazin-7-yl)benzonitrile hydrochloride]: the figures for the IC50 at LSD1 and in the assay with NCI-H1417 cells were 37.7 nM and 656 nM, respectively.

With `CNC1CCCN(c2ccnn3c(-c4ccc(C)cc4)c(-c4ccc(C#N)cc4)cc23)C1` (stereo not drawn) [Example 197, 4-(4-(3-(methylamino)piperidin-1-yl)-7-(p-tolyl)pyrrolo[1,2-b]pyridazin-6-yl]benzonitrile hydrochloride], the IC50 at LSD1 stood at 9.44 ± 5.96 nM; in the assay with NCI-H1417 cells, 24.2 nM.

On to `Cc1sc(C(=O)N2C3CCC2CC(N)C3)cc1-c1ccc(C#N)c(F)c1` (stereo not drawn) [Example 199, 4-(5-(3-amino-8-azadicyclo [3.2.1]octane-8-carbonyl)-2-methylthiophene-3-yl)-2-fluorobenzonitrile hydrochloride], for which the IC50 was 72 nM on LSD1 (HTRF, H3K4me1 substrate) and greater than 1000 nM in the assay with NCI-H1417 cells.

Take `N#Cc1ccc(-c2cc(C(=O)N3C4CCC3CC(N)C4)sc2-c2ccc3cc[nH]c3c2)cc1F` (stereo not drawn) [Example 200, 4-(5-(3-amino-8-azabicyclo [3.2.1]octane-8-carbonyl)-2-(1-hydro-indol-6-yl)thiophen-3-yl)-2-fluorobenzonitrile]: the IC50 turned out to be 0.69 nM on LSD1 (HTRF, H3K4me1 substrate) and 34 nM with NCI-H1417 cells.

Consider `N#Cc1ccc(-c2cc(C(=O)N3C4CCC3CC(N)C4)sc2-c2ccccn2)cc1F` (stereo not drawn) [Example 201, 4-(5-(3-amino-8-azabicyclo [3.2.1]octane-8-carbonyl)-2-(pyridin-2-yl)thiophen-3-yl)-2-fluorobenzonitrile Hydrochloride], for which the IC50 turned out to be 26.8 nM on LSD1 (HTRF, H3K4me1 substrate) and 384 nM with NCI-H1417 cells.

`N#Cc1ccc(-c2cc(C(=O)N3C4CCC3CC(N)C4)sc2-c2ccncn2)cc1F` (stereo not drawn) [Example 202, 4-(5-(3-amino-8-azabicyclo [3.2.1]octane-8-carbonyl)-2-(pyrimidin-4-yl)thiophen-3-yl)-2-fluoro-benzonitrile hydrochloride]: the IC50 at LSD1 (HTRF, H3K4me1 substrate) is 77.1 nM; with NCI-H1417 cells, greater than 1000 nM.

Take `N#Cc1ccc(-c2cc(C(=O)N3C4CCC3CC(N)C4)sc2-c2ccc3cn[nH]c3c2)cc1F` (stereo not drawn) [Example 203, 4-(5-(3-amino-8-azabicyclo [3.2.1]octane-8-carbonyl)-2-(1H-indazol-6-yl)thiophen-3-yl)-2-fluoro-benzonitrile]: the IC50 on LSD1 (HTRF, H3K4me1 substrate) is 0.39 nM; in the assay on NCI-H1417 cells, 37.6 nM.

`Cc1noc2cc(-c3sc(C(=O)N4C5CCC4CC(N)C5)cc3-c3ccncc3)c(F)cc12` (stereo not drawn) [Example 204, (3-amino-8-azabicyclo [3.2.1]octane-8-yl) (5-(5-fluoro-3-methylbenzo [d]isoxazol-6-yl)-4-(pyridin-4-yl)thiophen-2-yl)methanone hydrochloride]: the IC50 came to 12.2 ± 7.3 nM on LSD1 (HTRF, H3K4me1 substrate) and 118 nM in the assay with NCI-H1417 cells.

Regarding `Cc1noc2c(-c3sc(C(=O)N4C5CCC4CC(N)C5)cc3-c3ccc(C#N)c(F)c3)c(F)ccc12` (stereo not drawn) [Example 209, 4-(5-(3-amino-8-azabicyclo [3.2.1]octan-8-carbonyl)-2-(6-fluoro-3-methylbenzo[d]isoxazol-7-yl)thiophen-3-yl)-2-fluoro-benzonitrile hydrochloride], the IC50 on LSD1 (HTRF, H3K4me1 substrate) worked out at 0.507 nM; in the assay on NCI-H1417 cells, 1.44 nM.
